Source: patent publication US20080241194A1, “COMPOSITIONS AND METHODS FOR PROTECTING ORGANS, TISSUE AND CELLS FROM IMMUNE SYSTEM-MEDIATED DAMAGE” (THE BOARD OF TRUSTEES OF THE LELAND STANFORD JUNIOR …, priority 1998, published 2008)
Ends that are not written are not given here.

Experiments:
[1] = test system: OCI-Ly8 tumor cell; assay: ^51Cr release CIK cytotoxicity assay, tumor targets; type: cell-based, human; details: peptide 10 μM, E:T 20:1
Method: (§1) Target cells were metabolically labelled with ^51Cr (Dupont—New England Nuclear, Boston, Mass.) by incubating 1×10^6 cells in […] ^51Cr at 37° C. for 1-1.5 hours. The labelled cells were washed three times with phosphate buffered saline (PBS) containing 0.1% bovine serum albumin. The labelled cells were distributed in flat-bottomed 96 well microtiter plates at a concentration of 2×10^4 cells/well in triplicate. Effector (CIK) cells were added at the indicated ratios. Mabs were added prior to the addition of effector cells, and incubated for 15-30 minutes at room temperature. The final volume of the assay mixture in each well was 0.2 ml. After 4 hours at 37° C., the cells were collected by centrifugation and an aliquot of the supernatant was counted in a gamma counter (Micromedic Systems, Horsham, Pa.). The percentage of specific ^51Cr release was calculated according to the following equation: […]
Spontaneous release was obtained by incubating the labelled cells in complete medium alone and maximal release by treatment of the cells with 1% NP-40. […]

[2] = Solubility of synthesized peptide; type: physicochemical; details: used in PBS and RPMI 1640
Method: A hydrophilic 9 mer peptide of the sequence […] (SEQ ID NO:3) which corresponds to the region of shared homology of Hsp47 with HLA-A2 was synthesized by the Stanford PAN facility on a BioApplied® peptide synthesizer, HPLC purified and verified by amino acid sequencing. Pure peptide was lyophilized and stored at −20° C.

[3] = test system: HUVEC; assay: ^51Cr release CIK cytotoxicity assay, endothelial cell targets pre-treated with BFA, protein or peptide; type: cell-based, human
Method: as §1
Spontaneous release was obtained by incubating the labelled cells in complete medium alone and maximal release by treatment of the cells with 1% NP-40.
For brefeldin A (BFA) treatment, freshly confluent HUVEC monolayers, nonadherent target cells or CIK cells at 0.5-2×10^6 cells per ml were incubated with medium supplemented with 0.5-10 μg of brefeldin A (B6hringer Mannheim GmbH, Mannheim, Germany) per ml medium and incubated for 2-6 hours in a humidified incubator with 5% carbon dioxide at 37° C. BFA was dissolved at 100 μg per ml in 70% ethanol and used fresh or stored up to 4 weeks at −20° C. Prior to cytotoxicity assay the cells were rinsed three times with PBS, and fresh medium not containing BFA was added for the remainder of the assay (FIG. 4).
Both HUVEC and OCI-Ly8 cells were incubated with BFA at concentrations of 0, 2.5, 5, 7.5 and 10 μM for 6 hours as described above, washed, labeled with ^51Cr and used in a cytotoxicity assay with d21 CIK cells at an E:T ratio of 20:1. Preincubation of EC targets with 2.5 μM BFA reduced CIK mediated cytotoxicity by 40%.
Subsequent to ^51Cr labeling but prior to addition of effector cells 10-200 μg FPLC purified Hsp47 (Example 7) protein or 10 nM to 10 μM HPLC purified peptide […] (SEQ ID NO:3) (Example 8), both in sterile PBS at pH 7.4 and diluted to the final concentration with RPMI, were added to targets per ml of medium and incubated for 30 minutes at 37° C. in a humidified atmosphere of 5% CO2. In assays using purified protein, targets were subjected to three subsequent washes with 10 volumes of Ca^2+, Mg^2+ and 5% FCS containing PBS prior to providing fresh standard culture medium to the target cells. In assays using purified peptide, the added peptide was present for the entire assay. The remainder of the assay was performed as detailed above, at 37° C. in a humidified atmosphere of 5% CO2.

[4] = target: T1, granzyme A (Homo sapiens, UniProt P12544); assay: BLT esterase or SDS-PAGE gelshift assays with granzymes; type: biochemical; details: data not shown
T1 sequence (P12544 29-262): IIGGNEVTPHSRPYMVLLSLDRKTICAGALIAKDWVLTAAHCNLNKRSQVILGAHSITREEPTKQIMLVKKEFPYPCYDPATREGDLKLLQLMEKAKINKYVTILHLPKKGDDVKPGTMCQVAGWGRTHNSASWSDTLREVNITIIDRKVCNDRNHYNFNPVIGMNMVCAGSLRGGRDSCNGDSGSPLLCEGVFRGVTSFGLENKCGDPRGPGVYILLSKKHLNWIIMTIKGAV
Source text: By sequence homology, Hsp47 is a serine protease inhibitor with theoretical specificity for lysine at the active site of incoming serine proteases. Serpins act as “bait” representing cleavable substrates which form a stable instead of a transitory covalent bond with the active center of serine proteases. […] Thus, serpins inactivate serine proteases in a stoichiometric ratio of 1:1. Despite the sequence relationship, no substrate serine protease has so far been identified for Hsp47. Some authors expect the serpin-domain to be nonfunctional because its “active site” amino acids are modified (Hirayoshi et al., Mol Cell Biol 11:4036-4044 (1991)). […] In ^51Cr-release assays, deletion of the serpin domain led to loss of function of the affected truncation mutants. However, as further deletions of the gene re-established full function to the smaller truncated Hsp47 mutants, expressing then little more than the H1,A-A2-consensus region discussed below, we assume that the loss of function of the C-terminal truncation of Hsp47's serpin domain causes a conformational change in the protein which normalizes with further truncation. […]

[5] = test system: Balb/c mice; assay: Murine GvHD model, bone marrow transplant; type: in vivo, mouse; details: for protection from GvHD: 300 μg Hsp47-Gst protein with graft cells, single injection day 0, monitored 4 weeks, 5 animals
Method: Male Balb/c mice were twice irradiated with 500 Rads prior to transplantation. Bone marrow (BM) and spleen derived stem cells were obtained from B10D2 (H-2^d background) mice. 2.5×10^6 BM and 1×10^6 spleen cells were pooled as a graft source for each recipient male Balb/c animal. This non-enriched stem cell population of cells were either suspended in RPMI containing 300 μg Hsp47-Gst protein in 300 μl total volume, or, in buffer containing 100 μg of Gst control protein alone. Cells and protein were given in a single injection on day 0. No other immunosuppressive treatments were given. Animals were monitored for 4 weeks after the bone marrow transplant.

[6] = test system: major serine proteases; details: Davids et al. 1995; cited from earlier work

With AVLSAEQLR the “reduction of specific target lysis, CIK-OCI-Ly8 tumor cell ^51Cr cytotoxicity assay” value [1] was “less than 10%” and the “solubility in aqueous solution” value [2] was “soluble in aqueous solution”.

For “huHsp47-GST protein: fusion protein of human Hsp47 and N-terminally tagged glutathione-S-transferase, expressed in bacteria”, the “reduction of EC lysis” value ([3]; 1 μM huHsp47-GST protein) was 50%, the “protection of EC by purified recombinant protein” value ([3]; dose response) was “protects EC in a dose responsive fashion” and the “protection of EC from CIK mediated lysis” value ([3]; pre-incubation with 10 μM huHsp47-GST protein) was “completely protects”. The “irreversible inhibition of granzymes” value [4] was “not able to demonstrate a function of Hsp47 as an irreversible inhibitor”, the “protection from GvHD” value [5] was “none developed graft vs. host disease” and the “protection from GvHD” value ([5]; listed as Hsp-Gst protein) was “protected from the onset of GvHD, fur ruffling, weight loss and death”. For the same molecule, the opportunistic infection ([5]; full body irradiated mice, BMT, over the time period tested) was “none developed opportunistic infection”.

B1: murine Hsp47: purified murine Hsp47 from cited work (protein, UniProt P19324 18-417, looked up)
Serpin H1: AEVKKPLEAAAPGTAEKLSSKATTLAERSTGLAFSLYQAMAKDQAVENILLSPLVVASSLGLVSLGGKATTASQAKAVLSAEKLRDEEVHTGLGELLRSLSNSTARNVTWKLGSRLYGPSSVSFADDFVRSSKQHYNCEHSKINFRDKRSALQSINEWASQTTDGKLPEVTKDVERTDGALLVNAMFFKPHWDEKFHHKMVDNRGFMVTRSYTVGVTMMHRTGLYNYYDDEKEKLQMVEMPLAHKLSSLIILMPHHVEPLERLEKLLTKEQLKAWMGKMQKKAVAISLPKGVVEVTHDLQKHLAGLGLTEAIDKNKADLSRMSGKKDLYLASVFHATAFEWDTEGNPFDQDIYGREELRSPKLFYADHPFIFLVRDNQSGSLLFIGRLVRPKGDKMRDEL
For B1, the “inhibition of major serine proteases” value [6] is listed as “failed to inhibit”.
